Laboratory results: PMC11189516, “Structure-guided conversion from an anaplastic lymphoma kinase inhibitor into Plasmodium lysyl-tRNA synthetase selective inhibitors” (Communications Biology, 2024)
Where “and” joins values, the source holds several entries; their conditions need not be identical. Equal values may be shown once. Read-outs that look alike come from different tables or passages of the source.

Experiments:
[1] = molecular target: T1, PfLysRS (Plasmodium falciparum, UniProt Q8IDJ8); test: Thermal shift assay; format: binding; conditions: for ΔTm of PfLysRS / ΔTm at 200 µM: in the presence of L-lysine; for Tm of PfLysRS, Average / Tm of PfLysRS, single repeat: +Lysine
T1 construct: PfLysRS (77–583) was constructed in the vector pET20b, with a C-terminal 6×His tag; 6xHis (C); made in house; host or cells: E. coli BL21 (DE3)
T1 sequence (Q8IDJ8 entry or part of it): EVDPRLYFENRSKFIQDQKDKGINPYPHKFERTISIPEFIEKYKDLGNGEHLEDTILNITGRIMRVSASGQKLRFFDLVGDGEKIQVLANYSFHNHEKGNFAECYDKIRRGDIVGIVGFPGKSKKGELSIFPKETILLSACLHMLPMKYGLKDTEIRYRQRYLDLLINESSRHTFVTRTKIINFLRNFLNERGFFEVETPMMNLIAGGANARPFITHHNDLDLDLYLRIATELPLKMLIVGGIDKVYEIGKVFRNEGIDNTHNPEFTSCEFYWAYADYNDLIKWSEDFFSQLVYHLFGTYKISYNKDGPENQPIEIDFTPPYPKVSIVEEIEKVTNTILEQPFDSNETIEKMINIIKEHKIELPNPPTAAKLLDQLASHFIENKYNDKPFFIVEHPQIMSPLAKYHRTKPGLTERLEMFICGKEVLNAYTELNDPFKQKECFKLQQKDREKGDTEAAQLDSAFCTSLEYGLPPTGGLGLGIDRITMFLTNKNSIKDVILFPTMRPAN
Method: PfLysRS protein was prepared at 10 μM concentration in a buffer containing 20 mM Tris pH 8.0, 200 mM NaCl, 500 μM L-lysine, and 200 μM Compound. Aliquots (18 µL) were added to a 96-well PCR plate and incubated at ambient temperature for 10 min. SYPRO Orange dye (Sigma) was diluted in the assay buffer containing 20 mM Tris pH 8.0 and 200 mM NaCl to a 40× concentration, and 2 µL of the 40× dye solution was added to the PCR plate to bring the final assay volume to 20 µL. After complete mixing, the final solutions were heated from 25 to 90 °C at a rate of 0.015 °C per sec, and fluorescence signals were monitored by QuantStudio 3 (Applied Biosystems by Thermo Fisher Scientific).

[2] = molecular target: T1, PfLysRS; test: ATP hydrolysis assay (Kinase-Glo) on PfLysRS; format: biochemical
Method: (§1) The ATP hydrolysis assays were based on Kinase-Glo luminescent Kit (Promega). The experiment was carried out in Corning 384-well white flat bottom microplates. The buffer in the reaction contains 25 mM Hepes pH 7.4, 140 mM NaCl, 40 mM MgCl2, 30 mM KCl, 1 mM TCEP, 0.1 mg·mL^−1 BSA, and 0.004% Tween-20. The compounds were diluted to different concentrations with a 5-fold gradient.
(§2) For LysRS assays, DMSO was added into negative control wells and L-lysine was removed in positive control wells. 100 nM LysRS in 2.5 μL Hepes buffer was mixed with compounds and incubated for 10 min. Then 5 μL substrate mixture (2 μM ATP, 10 μM L-lysine and 31 nM pyrophosphatase) was added to start the reaction at 37 °C and incubated for 6 h.
(§3) When the reaction reaches the planned time, 10 μL diluted Kinase-Glo reagent (1/50 diluted with a buffer containing 50 mM Tris pH 7.5 and 5% glycerol) was added and incubated for 15 min. Luminescence was measured on the Magellan plate reader (Tecan) and nonlinear regression was performed with Prism (GraphPad).

[3] = molecular target: T2, HsLysRS (Homo sapiens, UniProt Q15046); test: ATP hydrolysis assay (Kinase-Glo) on HsLysRS; format: biochemical
T2 construct: HsLysRS (70–581) was constructed in the vector pET20b with a C-terminal 6×His tag; 6xHis (C); made in house; host or cells: E. coli (pET20b; 'purified similarly' to PfLysRS, which was expressed in BL21 (DE3))
T2 sequence (Q15046 70-581): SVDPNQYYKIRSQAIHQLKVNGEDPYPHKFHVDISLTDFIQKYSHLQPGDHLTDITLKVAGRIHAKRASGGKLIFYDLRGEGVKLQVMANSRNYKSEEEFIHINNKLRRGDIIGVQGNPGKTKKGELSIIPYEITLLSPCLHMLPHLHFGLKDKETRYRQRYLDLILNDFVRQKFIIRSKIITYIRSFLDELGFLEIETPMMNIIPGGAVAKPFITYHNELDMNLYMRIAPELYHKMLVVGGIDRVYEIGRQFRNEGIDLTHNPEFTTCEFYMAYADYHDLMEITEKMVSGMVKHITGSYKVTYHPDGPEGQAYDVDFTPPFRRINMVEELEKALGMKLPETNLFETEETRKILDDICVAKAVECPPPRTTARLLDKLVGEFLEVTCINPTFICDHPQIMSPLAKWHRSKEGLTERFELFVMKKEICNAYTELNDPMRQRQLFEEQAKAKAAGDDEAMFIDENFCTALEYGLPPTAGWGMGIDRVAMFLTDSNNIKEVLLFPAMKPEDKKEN
Method: as §1, §2, §3

[4] = molecular target: T3, ALK (Homo sapiens, UniProt Q9UM73); test: ATP hydrolysis assay (Kinase-Glo) on ALK; format: biochemical
T3 construct: The plasmid pCDNA3.1_8×His-tev-ALK (kinase domain, 1068–1410) was constructed; 8xHis (N); TEV site (N); made in house; host or cells: Expi293 cells (transient transfection)
T3 sequence (Q9UM73 1068-1410): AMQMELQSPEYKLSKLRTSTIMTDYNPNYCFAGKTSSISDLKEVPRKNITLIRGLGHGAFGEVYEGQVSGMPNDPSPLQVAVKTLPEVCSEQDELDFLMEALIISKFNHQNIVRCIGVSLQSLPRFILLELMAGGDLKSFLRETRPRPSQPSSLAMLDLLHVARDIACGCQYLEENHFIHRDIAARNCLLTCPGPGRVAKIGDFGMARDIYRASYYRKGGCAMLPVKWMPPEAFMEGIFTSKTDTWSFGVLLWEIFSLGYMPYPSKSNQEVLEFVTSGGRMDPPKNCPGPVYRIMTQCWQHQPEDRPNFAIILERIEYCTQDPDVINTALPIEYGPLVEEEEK
Method: as §1
For ALK assays, DMSO was added into negative control wells. 100 nM ALK in 2.5 μL Hepes buffer was mixed with compounds and incubated for 10 min. Then 5 μL substrate (2 μM ATP) was added to start the reaction at 37 °C and incubated for 6 h.
as §3

COc1ccc(OC)c(Nc2cccc(Nc3ccccc3S(=O)(=O)C(C)C)c2)c1 [Compound 36d]
ΔTm of PfLysRS [1]: −0.2 °C

COc1ccc(OC)c(Nc2cc(Nc3ccccc3S(=O)(=O)C(C)C)ncn2)c1 [Compound 36e]
ΔTm of PfLysRS [1]: 3.1 °C

COc1ccc(OC)c(Nc2nccc(Nc3ccccc3S(=O)(=O)C(C)C)n2)c1 [Compound 36f]
ΔTm of PfLysRS [1]: 2.4 °C

CC(C)S(=O)(=O)c1ccccc1Nc1ncnc(Nc2ccccc2S(=O)(=O)C(C)C)n1 [Compound 37]
ΔTm of PfLysRS [1]: 0.5 °C

COc1ncccc1Nc1ncnc(Nc2ccccc2S(=O)(=O)C(C)C)n1 [Compound 38a]
Tm of PfLysRS, Average [1]: 48.001 °C | Tm of PfLysRS, single repeat [1]: 48.109 °C and 48.140 °C and 47.986 °C and 47.770 °C | ΔTm at 200 µM [1]: 7.9 °C | HillSlope (best-fit value) ([2]; PfLysRS): 0.6952 | LogIC50 (best-fit value) ([2]; PfLysRS, log of nM): 2.755 | IC50 ([2]; PfLysRS, source data, read-out: IC50 (best-fit value)): 568 nM | IC50 ([2]; read-out: IC50 against PfLysRS): 568 nM | HillSlope (best-fit value) ([3]; HsLysRS): 1.205 | % Inhibition ([3]; HsLysRS, Log(Concentration)/nM 2.505, single repeats): 3.343% and 6.292% and 8.061% | % Inhibition ([3]; HsLysRS, Log(Concentration)/nM 3.204, single repeats): -0.8065% and 1.795% and 3.658% | % Inhibition ([3]; HsLysRS, Log(Concentration)/nM 3.903, single repeats): 7.774% and 9.643% and 10.78% | % Inhibition ([3]; HsLysRS, Log(Concentration)/nM 4.602, single repeats): 27.95% and 31.1% and 35.27% | % Inhibition ([3]; HsLysRS, Log(Concentration)/nM 5.301, single repeats): 65.61% and 74.02% and 86.84% | % Inhibition ([3]; HsLysRS, Log(Concentration)/nM 6.000, single repeats): 101.8% and 97.59% and 99.58% | LogIC50 (best-fit value) ([3]; HsLysRS, log of nM): 4.923 | IC50 ([3]; HsLysRS, source data, read-out: IC50 (best-fit value)): 83.7 µM | IC50 ([3]; read-out: IC50 against HsLysRS): 84 µM | HillSlope (best-fit value) ([4]; ALK): 0.6894 | LogIC50 (best-fit value) ([4]; ALK, log of nM): 2.857 | IC50 ([4]; ALK, source data, read-out: IC50 (best-fit value)): 719 nM | IC50 ([4]; read-out: IC50 against ALK): 719 ± 182 nM

COc1cccnc1Nc1ncnc(Nc2ccccc2S(=O)(=O)C(C)C)n1 [Compound 38b]
Tm of PfLysRS, Average [1]: 42.100 °C | Tm of PfLysRS, single repeat [1]: 42.223 °C and 42.193 °C and 42.039 °C and 41.946 °C | ΔTm at 200 µM [1]: 2 °C

COc1ccc(C)cc1Nc1ncnc(Nc2ccccc2S(=O)(=O)C(C)C)n1 [Compound 39]
ΔTm of PfLysRS [1]: 4.1 °C

COc1ccc([N+](=O)[O-])cc1Nc1ncnc(Nc2ccccc2S(=O)(=O)C(C)C)n1 [Compound 40]
ΔTm of PfLysRS [1]: 2.5 °C

COc1ccc(F)cc1Nc1ncnc(Nc2ccccc2S(=O)(=O)C(C)C)n1 [Compound 41]
ΔTm of PfLysRS [1]: 1.9 °C

COc1ccc(OC(F)(F)F)cc1Nc1ncnc(Nc2ccccc2S(=O)(=O)C(C)C)n1 [Compound 42]
ΔTm of PfLysRS [1]: 1.5 °C
